System: PDE4
Assay: Evaluation of PDE4 inhibition (scintillation proximity assay)
Format: biochemical
Conditions: inhibition rate relative to control, test compound at 1 μM
Experimental: Test Example 1 Evaluation of PDE4 Inhibition
The PDE4 inhibitory activity was measured by using scintillation proximity assay (SPA) as follows: one in which a sample compound dissolved in dimethyl sulfoxide was diluted 10-fold with a buffer solution for reaction containing 50 mM Tris-HCl, pH 7.5, 8.3 mM MgCl2, 1.7 mM EDTA and 0.3 mg/mL bovine serum albumin (BSA) was added at 10 μL/well to a 96-well assay plate. Further, PDE4 diluted 750-fold with a buffer solution for reaction was added at 50 μL/well, then [2,8-^3H]-Adenosine-3′,5′-cyclic phosphate triethylammonium salt diluted 1000-fold with a buffer solution for reaction was added at 40 μL/well, and the plate was left standing at room temperature for 120 minutes. Thereafter, a suspension of RNA binding YSi-SPA Beads containing 200 mM ZnSO4 was added at 50 μL/well, and the plate was left standing at room temperature for 15 minutes to adsorb the enzyme reaction product onto the Beads. Thereafter, the radioactivity was measured with a liquid scintillation counter for 96-well plates. When one supplemented with only a buffer solution for reaction without adding the enzyme preparation was used as a blank and one supplemented with the enzyme preparation but supplemented with only dimethyl sulfoxide instead of the sample solution was used as a control, the inhibition rate of the test compound relative to the control was calculated according to the following calculation expression: Inhibition rate (%)={1−(Numeric value from the addition of each sample−Blank value)/(Control value−Blank value)}×100

SMILES | PDE4 inhibitory activity (1 μM (%)) [%]
C[C@H]1CNCCN1c1nc2cc(Cl)cc(C3CCCO3)c2o1 (mixture of isomers) [Example 80, 5-Chloro-2-((S)-2-methylpiperazin-1-yl)-7-(tetrahydrofuran-2-yl)benzoxazole] | 42
CC(C)c1cc(Cl)cc2nc(N3CCNC[C@@H]3C)oc12 [Example 1, (S)-5-Chloro-7-isopropyl-2-(2-methylpiperazin-1-yl)benzoxazole] | 87
COc1cc(Cl)cc2nc(N3CCNC[C@@H]3C)oc12 [Example 2, (S)-5-Chloro-7-methoxy-2-(2-methylpiperazin-1-yl)benzoxazole] | 23
CC(=O)c1cc(Cl)cc2nc(N3CCNC[C@@H]3C)oc12 [Example 3, (S)-7-Acetyl-5-chloro-2-(2-methylpiperazin-1-yl)benzoxazole] | 50
Cc1cc(Cl)cc2nc(N3[C@H](C)CNC[C@@H]3C)oc12 [Example 4, meso-5-Chloro-2-(2,6-cis-dimethylpiperazin-1-yl)-7-methylbenzoxazole] | 18
Cc1cc(F)cc2nc(N3CCNC[C@@H]3C)oc12 [Example 5, (S)-5-Fluoro-7-methyl-2-(2-methylpiperazin-1-yl)benzoxazole] | 25
Cc1cc(Br)cc2nc(N3CCNC[C@@H]3C)oc12 [Example 6, (S)-5-Bromo-7-methyl-2-(2-methylpiperazin-1-yl)benzoxazole] | 36
CC(C)Oc1cc(Cl)cc2nc(N3CCNC[C@@H]3C)oc12 [Example 7, (S)-5-Chloro-7-isopropoxy-2-(2-methylpiperazin-1-yl)benzoxazole] | 59
CCc1cc(Cl)cc2nc(N3CCNC[C@@H]3C)oc12 [Example 8, (S)-5-Chloro-7-ethyl-2-(2-methylpiperazin-1-yl)benzoxazole] | 79
CCOC(=O)c1cc(Cl)cc2nc(N3CCNC[C@@H]3C)oc12 [Example 9, (S)-5-Chloro-7-ethoxycarbonyl-2-(2-methylpiperazin-1-yl)benzoxazole] | 50
C[C@H]1CNCCN1c1nc2cc(Cl)cc(C#N)c2o1 [Example 10, (S)-5-Chloro-7-cyano-2-(2-methylpiperazin-1-yl)benzoxazole] | 36
CCc1cc(Cl)cc2nc(N3CCNC[C@@H]3C(C)C)oc12 [Example 11, (S)-5-Chloro-7-ethyl-2-(2-isopropylpiperazin-1-yl)benzoxazole] | 26
CCc1cc(Cl)cc2nc(N3CCNC[C@@H]3CC(C)C)oc12 [Example 12, (S)-5-Chloro-7-ethyl-2-(2-isobutylpiperazin-1-yl)benzoxazole] | <10
CCCC[C@H]1CNCCN1c1nc2cc(Cl)cc(CC)c2o1 [Example 13, (S)-2-(2-n-Butylpiperazin-1-yl)-5-chloro-7-ethylbenzoxazole] | <10
CCc1cc(Cl)cc2nc(N3CCNC[C@@H]3CC)oc12 [Example 14, (S)-5-Chloro-7-ethyl-2-(2-ethylpiperazin-1-yl)benzoxazole] | 37
C[C@H]1CNCCN1c1nc2cc(Cl)cc(CO)c2o1 [Example 15, (S)-5-Chloro-7-hydroxymethyl-2-(2-methylpiperazin-1-yl)benzoxazole] | 21
C[C@H]1CNCCN1c1nc2cc(Cl)cc(-c3ccsc3)c2o1 [Example 16, (S)-5-Chloro-2-(2-methylpiperazin-1-yl)-7-(thiophen-3-yl)benzoxazole] | 75

SMILES | PDE4 inhibitory activity (1 μM (%)) [%]
C[C@H]1CNCCN1c1nc2cc(Cl)cc(-c3ccoc3)c2o1 [Example 17, (S)-5-Chloro-7-(furan-3-yl)-2-(2-methylpiperazin-1-yl)benzoxazole] | 84
C[C@H]1CNCCN1c1nc2cc(Cl)cc(-c3cccs3)c2o1 [Example 18, (S)-5-Chloro-2-(2-methylpiperazin-1-yl)-7-(thiophen-2-yl)benzoxazole] | 76
C[C@H]1CNCCN1c1nc2cc(Cl)cc(-c3ccccc3)c2o1 [Example 19, (S)-5-Chloro-2-(2-methylpiperazin-1-yl)-7-phenylbenzoxazole] | 76
C[C@H]1CNCCN1c1nc2cc(Cl)cc(N3CCCC3)c2o1 [Example 20, (S)-5-Chloro-2-(2-methylpiperazin-1-yl)-7-(pyrrolidin-1-yl)benzoxazole] | 71
C[C@H]1CNCCN1c1nc2cc(Cl)cc(N3CCOCC3)c2o1 [Example 21, (S)-5-Chloro-2-(2-methylpiperazin-1-yl)-7-(morpholin-1-yl)benzoxazole] | 59
C[C@H]1CNCCN1c1nc2cc(Cl)cc(N3CCCCC3)c2o1 [Example 22, (S)-5-Chloro-2-(2-methylpiperazin-1-yl)-7-(piperidin-1-yl)benzoxazole] | 40
C[C@H]1CNCCN1c1nc2cc(Cl)cc(-c3ccco3)c2o1 [Example 23, (S)-5-Chloro-7-(furan-2-yl)-2-(2-methylpiperazin-1-yl)benzoxazole] | 95
C[C@H]1CNCCN1c1nc2cc(Cl)cc(NC3CCCC3)c2o1 [Example 24, (S)-5-Chloro-7-(cyclopentylamino)-2-(2-methylpiperazin-1-yl)benzoxazole] | 27
CCN(CC)c1cc(Cl)cc2nc(N3CCNC[C@@H]3C)oc12 [Example 25, (S)-5-Chloro-7-diethylamino-2-(2-methylpiperazin-1-yl)benzoxazole] | 53
C[C@H]1CNCCN1c1nc2cc(Cl)cc(N(C)C)c2o1 [Example 26, (S)-5-Chloro-7-dimethylamino-2-(2-methylpiperazin-1-yl)benzoxazole] | 61
C[C@H]1CNCCN1c1nc2cc(Cl)cc(C3CC3)c2o1 [Example 27, (S)-5-Chloro-7-cyclopropyl-2-(2-methylpiperazin-1-yl)benzoxazole] | 85
C[C@H]1CNCCN1c1nc2cc(Cl)cc(OC3CCCC3)c2o1 [Example 28, (S)-5-Chloro-7-(cyclopentyloxy)-2-(2-methylpiperazin-1-yl)benzoxazole] | 81
CCOc1cc(Cl)cc2nc(N3CCNC[C@@H]3C)oc12 [Example 29, (S)-5-Chloro-7-ethoxy-2-(2-methylpiperazin-1-yl)benzoxazole] | 63
CCCOc1cc(Cl)cc2nc(N3CCNC[C@@H]3C)oc12 [Example 30, (S)-5-Chloro-2-(2-methylpiperazin-1-yl)-7-n-propoxybenzoxazole] | 61
C[C@H]1CNCCN1c1nc2cc(Cl)cc(C3CCCC3)c2o1 [Example 31, (S)-5-Chloro-7-cyclopentyl-2-(2-methylpiperazin-1-yl)benzoxazole] | 51
CCCCc1cc(Cl)cc2nc(N3CCNC[C@@H]3C)oc12 [Example 32, (S)-7-n-Butyl-5-chloro-2-(2-methylpiperazin-1-yl)benzoxazole] | 62
C[C@H]1CNCCN1c1nc2cc(Cl)cc(-n3cccn3)c2o1 [Example 33, (S)-5-Chloro-2-(2-methylpiperazin-1-yl)-′7-(1H-pyrazol-1-yl)benzoxazole] | 93

Reference: patent US9890142B2, “PDE4 inhibitor” (Meiji Seika Pharma Co., Ltd., priority 2013, dated 2018)
